One series concerns the target T1, topoisomerase I (Homo sapiens, UniProt P11387).
T1 construct: purchased TopoGEN
T1 sequence (P11387 1-765): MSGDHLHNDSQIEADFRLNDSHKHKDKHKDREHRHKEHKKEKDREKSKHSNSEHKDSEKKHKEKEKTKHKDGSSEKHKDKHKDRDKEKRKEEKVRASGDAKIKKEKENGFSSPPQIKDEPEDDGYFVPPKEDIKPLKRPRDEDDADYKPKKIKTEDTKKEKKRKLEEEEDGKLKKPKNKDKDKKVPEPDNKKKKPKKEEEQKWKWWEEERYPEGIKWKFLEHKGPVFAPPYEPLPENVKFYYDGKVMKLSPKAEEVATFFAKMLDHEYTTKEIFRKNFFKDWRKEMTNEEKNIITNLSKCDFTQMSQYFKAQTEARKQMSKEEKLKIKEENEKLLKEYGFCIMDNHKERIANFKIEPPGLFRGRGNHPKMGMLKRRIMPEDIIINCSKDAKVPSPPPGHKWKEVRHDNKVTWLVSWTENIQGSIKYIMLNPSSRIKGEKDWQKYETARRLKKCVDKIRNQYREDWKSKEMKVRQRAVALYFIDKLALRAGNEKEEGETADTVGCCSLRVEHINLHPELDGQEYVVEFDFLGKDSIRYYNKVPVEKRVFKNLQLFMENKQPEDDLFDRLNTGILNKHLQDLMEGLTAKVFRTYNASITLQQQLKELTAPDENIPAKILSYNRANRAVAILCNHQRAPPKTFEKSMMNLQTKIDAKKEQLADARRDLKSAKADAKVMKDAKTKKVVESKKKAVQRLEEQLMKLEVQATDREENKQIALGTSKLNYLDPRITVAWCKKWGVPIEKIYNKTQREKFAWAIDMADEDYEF
The experiment in a line: Topoisomerase I inhibition, pBR322 DNA relaxation. The series is classed as biochemical. Conditions: 37° C., 30 minutes. Here is the method: (1) 2 μl of topoisomerase II (TopoGEN; 2 units/μl), 2 μl of 10-fold concentrated buffer [0.5 M Tris-HCl (pH 8.0), 1.2 M KCl, 0.1 M MgCl2, 2.5 mM adenosine triphosphate, 5 mM dithiothreitol], 2 μl of 0.1% bovine serum albumin (Takara Shuzo), 11 μl of distilled water and 2 μl of distilled water (control) or 2 μl of one of aqueous solutions of dipropionylcyclopentenone, diisobutyrylcyclopentenone, dibenzoylcyclopentenone, dihexanoylcyclopentenone, di-2-hexenoylcyclopentenone, dimethoxyacetylcyclopentenone, dimethylfumarylcyclopentenone or dimethylmaleylcyclopentenone at varying concentrations were mixed together. 1 μl of 0.25 μg/μl pBR322 DNA (Takara Shuzo) was added thereto. The resulting mixture was reacted at 37° C. After reacting for 30 minutes, 2 μl of an aqueous solution containing 1% sodium dodecyl sulfate, 50% glycerol and 0.02% Bromophenol Blue was added thereto to stop the reaction. […]
(2) The activity of inhibiting topoisomerase I of each of the cyclopentenone derivatives was determined as described in Example 3-(1) except that topoisomerase I (TopoGEN; 0.01 unit/μl) was used in place of topoisomerase II and a solution containing 100 mM Tris-HCl (pH 7.9), 10 mM EDTA, 1 mM spermidine and 50% glycerol was used as 10-fold concentrated buffer.

Series [1] relates to λ-carrageenan pedal edema. The experiment in a line: Carrageenan induced pedal edema. Conditions: rat, 3 hours after carrageenan. The series is classed as in vivo, Lewis rats. The protocol:
Lewis rats (male, 9 weeks old, weighing about 250 g) were purchased from Seac Yoshitomi.
Rats were fasted from 18 hours before the start of the experiments. Dipropionylcyclopentenone, dihexanoylcyclopentenone, di-2-hexenoylcyclopentenone, diisobutyrylcyclopentenone or dibenzoylcyclopentenone dissolved in olive oil (Nacalai Tesque) was orally administered to 4 rats per group at 1 or 10 mg/10 ml/kg.
100 μl of 1% λ-carrageenan (Wako Pure Chemical Industries) suspension in saline (Otsuka Pharmaceutical) was injected into the sole of right paw of a rat 0.5 hour after the administration of test substance to induce pedal edema. The volume of the right foot of the rat was measured using an instrument for measuring pedal volume (Ugo Basile) 3 hours after the injection with carrageenan. The measurements were expressed as the rate of increase calculated based on the volume of the right foot of each rat measured before the administration with carrageenan.
FIG. 5 illustrate the relationship between the amount of cyclopentenone derivative administered and the rate of increase in edema in foot. The horizontal axis represents the dose […] and the vertical axis represents the rate of increase (%).
(In general: The carrageenan paw model is a standard test of acute inflammation.)

Series [2] is described as follows: Single oral dose toxicity. The series is classed as in vivo. To be noted: mouse, oral, single dosage of 100 mg/kg. The protocol:
No toxicity is observed when a physiologically effective amount of the cyclopentenone derivative or an optical isomer thereof, or a salt thereof obtained according to the present invention is administered.

The subject of the next series is HSP70. Conditions: cited from earlier work.

Take `O=C(OC1C=CC(=O)C1OC(=O)c1ccccc1)c1ccccc1` (centres unmarked): on topoisomerase I, the “Concentration at which change of DNA from superhelical type to relaxed type was partially or completely inhibited” value is not below 50 µM. The “Suppression of edema in foot (FIG. 5)” value in series [1] (1 mg/kg oral) is given as “Tendency of suppression”; in series [1] (10 mg/kg oral), “significant suppression”. Moreover, the “Death after single oral administration” value in series [2] is “no death was observed”.
Take `O=C1C=CCC1` [2-cyclopenten-1-one]: in the series on HSP70, the “Concentration required for inducing HSP70” value is given as “several hundred”.

The values above are taken from patent US6548543B1, “Remedies or preventives containing cyclopentenone compounds as the active ingredient” (Takara Shuzo Co., Ltd., priority 1998, dated 2003).
